A value given as a limit tells only on which side of the number the result lay.

In one series the test system is AML-SH-074. Description: Cell viability in patient derived AML samples (CellTiterGlo, 72 h). It counts as cell-based, human. The note with it: for IC50: Homo sapiens, 72 h, read-out: AML-SH-074 IC50; for AML-SH-074 Efficacy: patient derived AML sample AML-SH-074, 72 h, cell viability at max. concentration. As for the experimental part: (§1) Patient AML samples were gathered (under IRB 13-6180) from Scripps MD Anderson, La Jolla, CA Fresh blood samples were subjected to gradient density centrifugation with Ficoll-Paque™ PLUS (17-1440-02, GE Healthcare) and peripheral blood mononuclear cells purified as per manufacturer's protocol.
(§2) 75 nL of 1000× serially diluted IAP inhibitors were spotted in triplicate onto 384-well tissue culture treated plates (Greiner) using a Labcyte Echo acoustic dispensing device. Patient-derived AML cells were maintained in mTeSR1^+1× supplements (Stemcell Technologies) and penicillin/streptomycin/L-glutamine (Omega Scientific Inc.) and Fungizone (HyClone). 25 μL of cell dilution were plated into 384-well plate containing the drugs and incubated for 72 h. Cell viability was assessed by adding 25 μL CellTiterGlo (Promega Corp.) on a Synergy 2 plate reader with Gen5 software (Biotek). % viability was calculated by normalizing luminescence to vehicle only controls (DMSO) in Microsoft Excel and plotted using GraphPad Prism 8. The IC50 values were calculated using log(inhibitor) vs. response—Variable slope (four parameters) equation. (FIG. 6)

A further series has as its system AML-SH-075. The series is described as above. It counts as cell-based, human. The note with it: for IC50: Homo sapiens, 72 h, read-out: AML-SH-075 IC50; for AML-SH-075 Efficacy: patient derived AML sample AML-SH-075, 72 h, cell viability at max. concentration. On the procedure:
as §1, §2

In the next series the test system is AML-SH-065. Described as above. Conditions: for IC50: Homo sapiens, 72 h, read-out: AML-SH-065 IC50; for AML-SH-065 Efficacy: patient derived AML sample AML-SH-065, 72 h, cell viability at max. concentration. The format is cell-based, human. On the procedure:
as §1, §2

The test system of the next series is NB-4. Description: Cell viability (CellTiter-Glo). It counts as cell-based, Human. Conditions: Homo sapiens, NB-4, 72 h, read-out: NB-4 Viability 72 h IC50. On the procedure:
The compound 18a was tested in 16 different cell lines. For 6-day compound treatment 1700 cells per well were plated in a 384-well plate (Corning #781098) and incubated overnight at 37° C./5% CO2. […] Afterwards, 20 μL CellTiter-Glo reagent (Promega, #G7570) was added to each well outside of the incubator and the plates were read for luminescence on a Spark® multimode microplate reader (Tecan). Data was fit in GraphPad Prism 8 to a nonlinear regression curve to determine the IC50 of the compounds. […]
A general note: ATP-based viability assays read luminescence as a measure of living cells.

A further series has as its system SKOV-3. Put plainly: Cell viability (CellTiter-Glo), 48 hrs. Conditions: Homo sapiens, SK-OV-3, 48 h, read-out: SKOV-3 Viability 48 h IC50. It counts as cell-based. As for the experimental part:
One thousand seven hundred cells per well were plated in a 384 well plate and incubated overnight at 37° C./5% CO2. The following day, compounds in 10-fold dilutions were added to the plates and the plates returned to the incubator for 48 hrs. 48 hrs later, plates were removed to the bench and 20 μL CellTiter-Glo reagent was added to each well and the plates were read for luminescence on a Spark® multimode microplate reader (Tecan). Data were fit using PRISM to a nonlinear regression curve to determine the IC50 of the compounds.

Another series relates to MOLM 13. Description: Cell viability (CellTiter-Glo), 6-day compound treatment. It counts as cell-based, Human. The note with it: Homo sapiens, MOLM-13, 144 h, read-out: MOLM 13 Viability 6 d IC50. As for the experimental part:
The compound 18a was tested in 16 different cell lines. For 6-day compound treatment 1700 cells per well were plated in a 384-well plate (Corning #781098) and incubated overnight at 37° C./5% CO2. The following day, compounds in 10-fold dilutions were added to the plates and the plates were incubated for 6 days. Afterwards, 20 μL CellTiter-Glo reagent (Promega, #G7570) was added to each well outside of the incubator and the plates were read for luminescence on a Spark® multimode microplate reader (Tecan). Data was fit in GraphPad Prism 8 to a nonlinear regression curve to determine the IC50 of the compounds. […]

The next series has as its target BIR3 domain of cIAP1 (Homo sapiens, UniProt Q13490). Description: Fluorescence polarization assay. It counts as binding. Conditions: SMAC-FITC probe, Ki calculated from IC50. As for the experimental part: (§3) Binding of compounds to ML-IAP and BIR3 domain of cIAP1, cIAP2 and XIAP was determined by fluorescence polarization. Assay buffer was 100 mM KH2PO4 at pH 7.5, 50 μM ZnSO4, 1 mM TCEP (Tris(2-carboxyethyl)phosphine hydrochloride) and 50 nM SMAC-FITC probe (AbuRPF-K(5-Fam)-NH2) as described by Z. Nikolovska-Coleska et al.^9. cIAP1 and XIAP were present at 800 nM while cIAP2 and MLIAP were present at 1.5 μM. Compounds in 3-fold dilutions were added to the plates ranging from 30 μM to 1.5 nM. Assays were run in 384-well black plates read (Greiner Bio-One #784076) in an Analyst in fluorescence polarization mode with excitation at 485 nm and emission at 535 nm. Data was fit to a nonlinear regression curve in GraphPad Prism 8 to determine the IC50 values of the compounds. Ki's were then calculated from the IC50 values using equation: Ki=[I]50/([L]50/Kd+[P]0/Kd+1) formulated by Z. Nikolovska-Coleska et al.

In a further series the target is BIR3 domain of cIAP2 (Homo sapiens, UniProt Q13489). Put plainly: Fluorescence polarization assay. The format is binding. Conditions: SMAC-FITC probe, Ki calculated from IC50. As for the experimental part: as §3
A further series deals with T1, ML-IAP (Homo sapiens, UniProt Q96CA5).
T1 sequence (Q96CA5 1-298): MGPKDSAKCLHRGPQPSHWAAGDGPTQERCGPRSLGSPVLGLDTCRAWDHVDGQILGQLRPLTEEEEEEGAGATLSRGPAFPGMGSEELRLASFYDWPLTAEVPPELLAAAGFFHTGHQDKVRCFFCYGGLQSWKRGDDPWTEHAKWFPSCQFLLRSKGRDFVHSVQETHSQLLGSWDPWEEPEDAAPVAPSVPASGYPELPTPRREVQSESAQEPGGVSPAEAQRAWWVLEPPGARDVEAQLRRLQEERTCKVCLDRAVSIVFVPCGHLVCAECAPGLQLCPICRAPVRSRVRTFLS
Description: Fluorescence polarization assay. Conditions: SMAC-FITC probe, Ki calculated from IC50. The format is binding. As for the experimental part: as §3

The next series concerns the target BIR3 domain of XIAP (Homo sapiens, UniProt P98170). Description: Fluorescence polarization assay. It counts as binding. The note with it: SMAC-FITC probe, Ki calculated from IC50. As for the experimental part: as §3
Series [1] has as its system latently infected cell line Jurkat 2D10. Description: HIV Jurkat 2D10 cells GFP+ assay (reversal of HIV latency). The format is cell-based. Conditions: Homo sapiens, Jurkat, 48 h, read-out: Jurkat 2D10 GFP+ EC50. On the procedure: Several compounds (Table 5) were tested for their efficacy in the reversal of HIV latency in the latently infected cell line Jurkat 2D10. Jurkat 2D10 cells were treated with different doses of the compounds, or one of the following compounds: BV-6, SM-164, Birinapant, LCL-161, GDC-0152, AT-406 for 48 hours. Reversal of HW latency was evaluated by analyzing GFP expression using flow cytometry. Induction of GFP expression was compared to baseline GFP levels detected in the absence of treatment.

Series [2] in a line: Pharmacokinetic study in mice, snapshot PK. It counts as in vivo. Conditions: female, C57BL/6J, mouse, plasma, ip, one hour after i.p. injection of 10 mg/kg. As for the experimental part:
All animal procedures were approved by the Sanford Burnham Prebys Medical Discovery Institute Institutional Animal Care and Use Committee and were performed according to the NIH guidelines for the Care and Use of Laboratory Animals. Adult female C57BL/6J were purchased from JAX laboratories and housed with free access to food and water on a 12 h light/dark cycle. Compounds were formulated in 5% DMSO, 10% Tween-80, and 85% dH2O and injected intraperitoneally (i.p.) into mice at doses of 10 mg/kg. For snapshot PK analysis, blood samples were collected retro-orbitally one hour after injection and for the time course PK study, blood samples were collected at 15 min, 30 min, 1 h, 2 h, 4 h, 6 h, 24 h time points. For the blood samples plasma was separated by centrifugation. Plasma samples were extracted with acetonitrile:water 4:1 with 0.1% formic acid containing indometacin as an internal standard. Samples were centrifuged and supernatants were diluted with acetonitrile:water and analyzed via LC-MS/MS on a Shimadzu Nexera X2 HPLC coupled to an AB Sciex 6500 QTRAP.
Plasma exposure of selected compounds at 1 h compared.
Plasma levels of parent compound determined one hour after i.p. injection of 10 mg/kg

Chain of BIR3 domain of XIAP (P98170 241-356 limits assumed): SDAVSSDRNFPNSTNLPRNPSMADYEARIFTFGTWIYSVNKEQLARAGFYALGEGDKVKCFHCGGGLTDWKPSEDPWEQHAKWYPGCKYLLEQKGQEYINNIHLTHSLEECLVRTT
Chain of BIR3 domain of cIAP1 (Q13490 253-363 limits assumed): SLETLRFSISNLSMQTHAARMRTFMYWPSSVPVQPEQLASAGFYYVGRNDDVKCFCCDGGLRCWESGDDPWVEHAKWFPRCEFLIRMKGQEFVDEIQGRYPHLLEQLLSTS
Chain of BIR3 domain of cIAP2 (Q13489 238-349 limits assumed): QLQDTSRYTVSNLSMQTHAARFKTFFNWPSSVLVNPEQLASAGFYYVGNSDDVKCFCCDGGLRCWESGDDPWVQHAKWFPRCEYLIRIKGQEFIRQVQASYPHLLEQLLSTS

What is called IC50 is the concentration at which inhibition is half-maximal. By Ki is commonly meant the dissociation constant of the complex between target and ligand, obtained from inhibition or displacement. As usually defined, the EC50 is the concentration needed to bring the measured effect to its halfway point. Take `CN[C@@H](C)C(=O)N[C@H]1CCS[C@H]2CC(C)(C)[C@@H](C(=O)N[C@H]3c4ccccc4C[C@H]3OCC#Cc3ccc(CO[C@@H]4Cc5ccccc5[C@@H]4NC(=O)[C@H]4N5C(=O)[C@@H](NC(=O)[C@H](C)NC)CCS[C@H]5CC4(C)C)cc3)N2C1=O` [Compound 18e, (2S)-1-{[(4S,7S,9aS)-7-{[(1S,2R)-2-({3-[4-({[(1S,2R)-1-({[(4S,7S,9aS)-8,8-Dimethyl-4-{[(2S)-2-(methylammonio)propanoyl]amino}-5-oxooctahydropyrrolo[2,1-b][1,3]thiazepin-7-yl]carbonyl}amino)-2,3-dihydro-1H-inden-2-yl]oxy}methyl)phenyl]prop-2-ynyl}oxy)-2,3-dihydro-1H-inden-1-yl]carbamoyl}-8,8-dimethyl-5-oxooctahydropyrrolo[2,1-b][1,3]thiazepin-4-yl]amino}-N-methyl-1-oxopropan-2-ammonium dichloride]: the IC50 in the series on AML-SH-074 was 100 to 1000 nM; in the series with AML-SH-075, 1000 to 10000 nM; with AML-SH-065, 10 to 100 nM; in the series on NB-4, 10 to 100 nM; in the series on SKOV-3, below 10 nM; with MOLM 13, 100 to 1000 nM. In the series on AML-SH-074, the “AML-SH-074 Efficacy” value is reported as “I (I < 10%)”. Also, the “AML-SH-075 Efficacy” value in the series with AML-SH-075 is “I (I < 10%)”. In the series on AML-SH-065, the “AML-SH-065 Efficacy” value is reported as “I (I < 10%)”. For the same compound, the Ki on BIR3 domain of cIAP1 was 50 to 100 nM; on BIR3 domain of cIAP2 it was 100 to 200 nM; at ML-IAP, 100 to 200 nM; at BIR3 domain of XIAP it was at most 50 nM. Moreover, the half-maximal effective concentration (EC50) in [1] is below 1 nM. In addition, the concentration at 1 h in series [2] is 6200 nM.
With `CN[C@@H](C)C(=O)N[C@H]1CCS[C@H]2CC(C)(C)[C@@H](C(=O)N[C@H]3c4ccccc4C[C@H]3OCC#Cc3ccc(C#CCO[C@@H]4Cc5ccccc5[C@@H]4NC(=O)[C@H]4N5C(=O)[C@@H](NC(=O)[C@H](C)NC)CCS[C@H]5CC4(C)C)cc3)N2C1=O` [Compound 18c], the IC50 was 100 to 1000 nM in the series on AML-SH-074; 1000 to 10000 nM in the series on AML-SH-075; 10 to 100 nM in the series with AML-SH-065; below 10 nM with NB-4; below 10 nM in the series on SKOV-3; 10 to 100 nM in the series on MOLM 13. Further, in the series with AML-SH-074, the “AML-SH-074 Efficacy” value is recorded as “I (I < 10%)”. The “AML-SH-075 Efficacy” value in the series on AML-SH-075 is “I (I < 10%)”. Besides, in the series on AML-SH-065, the “AML-SH-065 Efficacy” value is “I (I < 10%)”. Also, the Ki is at most 50 nM at BIR3 domain of cIAP1, 50 to 100 nM at BIR3 domain of cIAP2, 50 to 100 nM at ML-IAP and at most 50 nM on BIR3 domain of XIAP. Further, the EC50 in [1] was 1 to 10 nM. In [2], this compound came in with a concentration at 1 h of 1310 nM.
Take `CN[C@@H](C)C(=O)N[C@H]1CCS[C@H]2CC(C)(C)[C@@H](C(=O)N[C@H]3c4ccccc4C[C@H]3OCc3ccc(CO[C@@H]4Cc5ccccc5[C@@H]4NC(=O)[C@H]4N5C(=O)[C@@H](NC(=O)[C@H](C)NC)CCS[C@H]5CC4(C)C)cc3)N2C1=O` [Compound 18g, (2S)-1-{[(4S,7S,9aS)-7-{[(1S,2R)-2-{[4-({[(1S,2R)-1-({[(4S,7S,9aS)-8,8-Dimethyl-4-{[(2S)-2-(methylammonio)propanoyl]amino}-5-oxooctahydropyrrolo[2,1-b][1,3]thiazepin-7-yl]carbonyl}amino)-2,3-dihydro-1H-inden-2-yl]oxy}methyl)benzyl]oxy}-2,3-dihydro-1H-inden-1-yl]carbamoyl}-8,8-dimethyl-5-oxooctahydropyrrolo[2,1-b][1,3]thiazepin-4-yl]amino}-N-methyl-1-oxopropan-2-ammonium dichloride]: the concentration for half-maximal inhibition (IC50) in the series on AML-SH-074 is 100 to 1000 nM; in the series with AML-SH-075, 10 to 100 nM; with AML-SH-065 it was 10 to 100 nM; in the series with NB-4 it was below 10 nM; with SKOV-3, below 10 nM; with MOLM 13, 10 to 100 nM. Also, the “AML-SH-074 Efficacy” value in the series on AML-SH-074 is listed as “I (I < 10%)”. Also, in the series with AML-SH-075, the “AML-SH-075 Efficacy” value is “I (I < 10%)”. Also, the “AML-SH-065 Efficacy” value in the series on AML-SH-065 was “I (I < 10%)”. In addition, the inhibition constant Ki on BIR3 domain of cIAP1 is at most 50 nM; at BIR3 domain of cIAP2, 50 to 100 nM; at ML-IAP it was 50 to 100 nM; on BIR3 domain of XIAP it was at most 50 nM. In addition, the half-maximal effective concentration (EC50) in series [1] fell in the range of 1 to 10 nM. This compound also returned a concentration at 1 h in [2] of 2680 nM.

Source of the values: patent publication US12678509B2, “Inhibitor of apoptosis (IAP) protein antagonists” (Sanford Burnham Prebys Medical Discovery Institute, priority 2019, dated 2026).
